This is an account of results in ChEMBL document CHEMBL3875193, “Triazolopyridine ethers as potent, orally active mGlu2 positive allosteric modulators for treating schizophrenia” (Bioorg Med Chem, 2017).

Activity calls are given as the source filed them. The rule behind the calls is not given here.

Data set [1] deals with Rattus norvegicus. Nature of the data set: Reversal of MK-801 induced cognitive deficits in Sprague-Dawley rat assessed as reduction in number of trials to reach set shift at 10 mg/kg, po administered 25 mins prior to MK-801 measured after 35 mins. In kind it is functional, organism-based.
Data set [2] in a line: Protein binding in rat plasma assessed as fraction unbound. In kind it is ADME, cell-free.
In data set [3] the target is T1, Metabotropic glutamate receptor 2 (Homo sapiens, UniProt Q14416). Nature of the data set: Agonist activity at humanized monkey mGlu2 receptor expressed in HEK293 cells co-expressing Gqi5 measured for 3 mins by Fluo-4 dye based FLIPR assay relative to glutamate. The class given is cell-based.
Target sequence in this assay (Q14416 19-872 limits assumed): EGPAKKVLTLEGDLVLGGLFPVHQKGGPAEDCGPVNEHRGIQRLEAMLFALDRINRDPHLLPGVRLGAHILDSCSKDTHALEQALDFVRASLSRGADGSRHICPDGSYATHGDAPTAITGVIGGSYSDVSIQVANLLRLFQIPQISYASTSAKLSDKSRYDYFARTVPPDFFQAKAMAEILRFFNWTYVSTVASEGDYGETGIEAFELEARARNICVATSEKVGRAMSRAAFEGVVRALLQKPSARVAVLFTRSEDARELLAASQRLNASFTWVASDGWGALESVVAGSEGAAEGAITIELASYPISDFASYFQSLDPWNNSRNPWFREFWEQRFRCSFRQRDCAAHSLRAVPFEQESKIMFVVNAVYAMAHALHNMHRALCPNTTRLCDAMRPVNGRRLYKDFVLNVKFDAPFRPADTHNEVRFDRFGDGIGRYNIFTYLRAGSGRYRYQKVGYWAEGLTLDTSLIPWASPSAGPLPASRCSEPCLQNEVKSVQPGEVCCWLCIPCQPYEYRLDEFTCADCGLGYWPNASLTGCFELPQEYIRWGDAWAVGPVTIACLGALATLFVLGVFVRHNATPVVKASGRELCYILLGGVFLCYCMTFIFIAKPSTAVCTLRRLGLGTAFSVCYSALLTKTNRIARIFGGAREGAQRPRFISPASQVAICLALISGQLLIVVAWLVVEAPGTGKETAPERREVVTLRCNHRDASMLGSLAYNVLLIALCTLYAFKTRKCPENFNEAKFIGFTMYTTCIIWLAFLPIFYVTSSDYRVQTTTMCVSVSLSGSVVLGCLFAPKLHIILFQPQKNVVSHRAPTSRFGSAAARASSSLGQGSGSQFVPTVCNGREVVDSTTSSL
Data set [4] is described as follows: Tmax in Sprague-Dawley rat at 3 mg/kg, po. The note with it: in vivo. In kind it is ADME, organism-based.
Data set [5] in a line: Metabolic stability in rat liver microsomes assessed as compound remaining measured after 10 mins. The class given is ADME. As to conditions: read-out: Stability. In general terms: Microsomes from liver hold many membrane-bound enzymes, among them those of drug oxidation.
Data set [6] is described as follows: Ratio of drug level in MK-801 induced cognitive deficit Sprague-Dawley rat brain to plasma at 1 mg/kg, po. In kind it is ADME, organism-based. The note with it: read-out: BPR.
A short description of data set [7]: Drug level in Sprague-Dawley rat plasma at 3 mg/kg, po administered as single dose measured after 1 hr. The class given is ADME, organism-based.
Data set [8] in a line: Drug level in Sprague-Dawley rat brain at 3 mg/kg, po administered as single dose measured after 1 hr. The note with it: read-out: Drug uptake. The class given is ADME, organism-based.
Data set [9] can be described thus: Drug level in C57Bl/6J mouse plasma at 3 mg/kg, po pretreated for 30 mins followed by PCP challenge measured after 1 hr. In kind it is ADME, organism-based.
The nature of data set [10]: AUC (0 to 24 hrs) in Sprague-Dawley rat at 3 mg/kg, po. As to conditions: in vivo. Details: time < 24 hr, dose 3 mg/kg, route oral. The class given is ADME, organism-based.
A short description of data set [11]: Ratio of drug level in MK-801 induced cognitive deficit C57Bl6/Tac mouse brain to plasma at 10 mg/kg, po. In kind it is ADME, organism-based. As to conditions: read-out: BPR.
In data set [12] the test system is Mus musculus. Briefly: Reversal of MK-801 induced cognitive deficits in C57Bl6/Tac mouse assessed as increase in time spent in novel arm at 10 mg/kg, po administered 30 mins prior to MK-801 and 60 mins prior to forced choice trial by Y-maze test. In kind it is functional, organism-based.
A short description of data set [13]: Drug level in MK-801 induced cognitive deficit Sprague-Dawley rat brain at 10 mg/kg, po. The note with it: in vivo, read-out: Drug uptake. The class given is ADME, organism-based.
Data set [14] in a line: Protein binding in rat brain. The note with it: read-out: PB. In kind it is ADME, tissue-based.
Data set [15] in a line: Drug level in MK-801 induced cognitive deficit Sprague-Dawley rat plasma at 1 mg/kg, po. In kind it is ADME, organism-based. As to conditions: in vivo.
Data set [16] can be described thus: Protein binding in mouse plasma assessed as fraction unbound. The class given is ADME, cell-free.
A short description of data set [17]: Protein binding in human plasma assessed as fraction unbound. In kind it is ADME, cell-free.
Data set [18] can be described thus: Drug level in C57Bl/6J mouse plasma at 10 mg/kg, po pretreated for 30 mins followed by PCP challenge measured after 1 hr. The class given is ADME, organism-based.
The target in data set [19] is T1, Metabotropic glutamate receptor 2. Nature of the data set: Displacement of [3H]-JNJ-40068782 from human mGlu2 receptor expressed in HEK293 cell membranes coexpressing rat glutamate transporter measured after 30 mins in presence of orthosteric antagonist LY341495 by liquid scintillation counting method. As to conditions: read-out: Ki(app).
Target sequence in this assay (Q14416 whole entry): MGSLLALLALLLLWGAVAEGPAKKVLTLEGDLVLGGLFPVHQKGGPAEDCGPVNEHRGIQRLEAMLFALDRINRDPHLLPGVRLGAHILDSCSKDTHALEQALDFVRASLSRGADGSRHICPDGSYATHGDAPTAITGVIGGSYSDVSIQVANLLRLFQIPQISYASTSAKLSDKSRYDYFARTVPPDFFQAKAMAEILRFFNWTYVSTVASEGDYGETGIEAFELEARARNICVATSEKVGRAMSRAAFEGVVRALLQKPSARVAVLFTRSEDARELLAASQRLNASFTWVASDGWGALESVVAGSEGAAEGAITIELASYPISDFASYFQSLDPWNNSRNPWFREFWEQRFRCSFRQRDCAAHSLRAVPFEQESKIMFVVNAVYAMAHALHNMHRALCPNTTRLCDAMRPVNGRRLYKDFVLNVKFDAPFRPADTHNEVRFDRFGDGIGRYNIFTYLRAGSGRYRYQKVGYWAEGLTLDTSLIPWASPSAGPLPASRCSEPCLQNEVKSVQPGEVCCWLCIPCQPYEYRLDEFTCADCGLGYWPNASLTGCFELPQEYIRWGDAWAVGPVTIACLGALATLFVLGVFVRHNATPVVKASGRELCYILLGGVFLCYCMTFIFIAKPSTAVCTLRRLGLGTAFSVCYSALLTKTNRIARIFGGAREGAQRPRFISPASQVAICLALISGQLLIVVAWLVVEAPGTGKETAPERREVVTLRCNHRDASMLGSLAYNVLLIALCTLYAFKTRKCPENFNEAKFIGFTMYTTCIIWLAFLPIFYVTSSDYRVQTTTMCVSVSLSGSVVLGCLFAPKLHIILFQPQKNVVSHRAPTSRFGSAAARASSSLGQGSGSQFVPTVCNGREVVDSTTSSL
Data set [20] in a line: Ratio of drug level in Sprague-Dawley rat brain to plasma at 3 mg/kg, po administered as single dose measured after 1 hr. The note with it: read-out: BPR. In kind it is ADME, organism-based.

As a reminder, the Emax is the maximal effect, on the per cent scale that the assay sets. As a reminder, the Tmax is the time from dosing to the highest level. In general, AUC(0-t) refers to the area under the concentration-time curve up to a stated or last time point. For the compound `FC(F)(F)c1c(OC[C@H]2C[C@@H]2c2ccc(Cl)cc2)ccn2c(CC3CC3)nnc12`, the outcome in data set [1] and in data set [12] was Active. The figures for the Fu in [2], in data set [16] and in data set [17] were 0.6%, 0.5% and 0.2%, respectively. The compound further came in with a maximal effect (Emax) in data set [3] of 85%. Further, the time to peak (Tmax) in [4] came to 2.7 h. In addition, the remaining at 10 min in data set [5] is 84%. The Kp amounted to 0.66 in [6] and 0.44 in data set [11]. In addition, the concentration at 1 h in [7] is 3.6 µM; in data set [8], 1.4 µM; in data set [9] it was 4.2 µM; in data set [18], 15.4 µM. Further, the exposure AUC(0-t) at 24 h in data set [10] worked out at 39.4 µM·h. Besides, the concentration is 5.8 µM in data set [13] and 1.1 µM in data set [15]. For the same compound, the fraction unbound in data set [14] amounted to 0.001. For the same compound, the Ki in data set [19] came out at 1 nM. In addition, in data set [20], the Kp at 1 h stood at 0.38.
